Source: patent US7259154B2, “Pyrrolopyrimidines” (Aventis Pharmaceuticals Inc., priority 2001, dated 2007)

melting point [°C] | Compound
184 | COc1ccc2c(c1)c(-c1cc3c(OC)ncnc3[nH]1)cn2C [Example 10, 4-Methoxy-6-(5-methoxy-1-methyl-1H-indol-3-yl)-7H-pyrrolo[2,3-d]pyrimidine]
> 260 | COc1ccc2[nH]cc(-c3cc4c(OC)ncnc4[nH]3)c2c1 [Example 11, 4-Methoxy-6-(5-methoxy-1H-indol-3-yl)-7H-pyrrolo[2,3-d]pyrimidine]
